The subject of the test is nerve/muscle (motor plate) junction, phrenic nerve/diaphragm preparation (striated muscle). The test is described as follows: Muscle-relaxant effect on contractions of isolated rat phrenic nerve/diaphragm preparation induced by indirect stimulation via the phrenic nerve. The settings on record: for inhibition at 10 µM / IC50: Rattus norvegicus; for inhibition at 10 µM: read-out: % INHIBITION OF CONTRACTIONS; for IC50: cumulative concentrations 10^−10 M to 10^−5 M, read-out: IC50 (concentration to obtain 50% of the inhibitory effect). On the procedure:
Hecogenin acetate and diosgenin, sold by Sigma, were tested on a model of nerve/muscle (motor plate) junction obtained in a phrenic nerve/diaphragm preparation isolated from rat (striated muscle) (Pollard B. J. et al, Br. J. Anaesth., 1988, 61, 419-424).
The phrenic nerve and the diaphragm are carefully isolated and placed in a 50 ml tank filled with survival liquid (Krebs-Henseleit liquid) maintained at a temperature of 37° C. and oxygenated with an oxygen/CO2 mixture (95/5).
The tension variations of the diaphragm are recorded with an initial pre-load of several grams.
After a relaxation period of 30 minutes, the diaphragm is stimulated indirectly via the phrenic nerve. […]

[1] abbreviates: contractions induced by indirect stimulation via phrenic nerve.

Read-outs that look alike come from different tables or passages of the source.

By inhibition is commonly meant the percentage by which the read-out fell short of the control. With `C[C@@H]1CC[C@@]2(OC1)O[C@H]1C[C@H]3[C@@H]4CC=C5C[C@@H](O)CC[C@]5(C)[C@H]4CC[C@]3(C)[C@H]1[C@@H]2C` [Diosgenin], the inhibition at 10 µM (concentration 10^−5 M, contractions induced by indirect stimulation via phrenic nerve) worked out at 100%. In addition, the IC50 under setting [1] was 1000 nM.

Consider `CC(=O)O[C@H]1CC[C@@]2(C)[C@@H](CC[C@@H]3[C@@H]2CC(=O)[C@]2(C)[C@@H]4[C@H](C[C@@H]32)O[C@]2(CC[C@@H](C)CO2)[C@H]4C)C1` [Hecogenin acetate], for which the inhibition at 10 µM was found to be 100%. In addition, under setting [1], the IC50 is 2500 nM.

In the case of `CCN(CCCc1ccccc1)CCCc1ccccc1` [alverine, reference compound], for the setting “concentration 10^−4 M”, the “inhibition of the contractions induced by the indirect stimulations” value is listed as “completely inhibits”. Besides, the “effect on the contractions induced by the indirect stimulations” value (concentration 10^−5 M) is given as “no effect”.

For the origin of these results see patent US7354956B2, “Composition containing a sapogenin and use thereof” (L'Oreal, priority 2002, dated 2008).
